Laboratory results as given in patent US20140057915A1, “KINASE INHIBITORS” (TOPIVERT PHARMA LIMITED, priority 2012, published 2014).

How the values were obtained:
cSrc = cSrc (Homo sapiens, UniProt P12931); assay: c-Src enzyme inhibition (FRET); type: biochemical
Summary of the method: (§1)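 Enzyme was preincubated with test compound (added as 4, 0.4, 0.04 or 0.004 μg/mL solutions) for 2 hr at RT. FRET peptide (8 μM solution) and ATP solution (800 μM for c-Src, 60 μM for Syk) were then added for 1 hr, followed by 1 hr protease development.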

Syk = Syk (Homo sapiens, UniProt P43405); assay: Syk enzyme inhibition (FRET); type: biochemical
Summary of the method: as §1

GSK3α [1] = target: T1, GSK3α (Homo sapiens, UniProt P49840); assay: GSK 3α enzyme inhibition (FRET), Method 1; type: biochemical; settings: Table 4a1
T1 sequence (P49840 whole entry): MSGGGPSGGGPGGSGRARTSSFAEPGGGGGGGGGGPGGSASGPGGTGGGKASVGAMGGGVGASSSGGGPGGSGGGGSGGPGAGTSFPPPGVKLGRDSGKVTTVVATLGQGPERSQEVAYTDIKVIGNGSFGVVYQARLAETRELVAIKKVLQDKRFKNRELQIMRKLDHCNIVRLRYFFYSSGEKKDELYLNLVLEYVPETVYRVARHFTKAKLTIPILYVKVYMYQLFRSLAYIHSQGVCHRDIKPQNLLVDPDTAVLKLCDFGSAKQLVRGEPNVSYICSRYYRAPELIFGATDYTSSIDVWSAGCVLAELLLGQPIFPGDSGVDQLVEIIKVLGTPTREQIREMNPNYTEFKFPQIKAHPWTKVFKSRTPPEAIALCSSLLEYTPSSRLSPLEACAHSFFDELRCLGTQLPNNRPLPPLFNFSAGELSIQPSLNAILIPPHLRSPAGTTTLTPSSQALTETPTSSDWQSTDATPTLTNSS
Summary of the method: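 GSK3α was preincubated with test compound for 2 hr at RT, then a FRET peptide substrate and ATP were added for 1 hr. Protease development for 1 hr cleaved only non-phosphorylated peptide, and phosphorylation was read as the coumarin/fluorescein emission ratio. Concentrations given are those of the added solutions: enzyme 500 ng/mL, peptide 8 μM, ATP 40 μM.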

GSK3α [2] = target: T1, GSK3α; assay: GSK 3α enzyme inhibition (FRET), Method 2; type: biochemical; settings: Table 4a2, different laboratory
[3] = tested on: TNFα release, d-U937 cells; assay: LPS-induced TNFα release in d-U937 cells; type: cell-based; settings: Homo sapiens, dU937; relative to 10 μg/mL BIRB796; Table 4c1; read-out: LPS Induced Release of Cytokine in d-U937 Cells, TNFα REC50
Summary of the method: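 Sandwich ELISA quantifies cytokine in supernatants after 4 hr LPS challenge (0.1 μg/mL) of PMA-differentiated (100 ng/mL, 48–72 hr) U937 macrophages given compound 2 hr beforehand. REC50 derived from concentration-response curve, inhibition calculated relative to vehicle.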

[4] = tested on: IL-8 release, d-U937 cells; assay: LPS-induced IL-8 release in d-U937 cells; type: cell-based; settings: Homo sapiens, dU937; Table 4c1; read-out: LPS Induced Release of Cytokine in d-U937 Cells, IL-8 IC50
Summary of the method: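 IL-8 release after a 4 hr challenge with LPS (0.1 μg/mL, E. coli 0111:B4) following a 2 hr compound pretreatment. Cells were human U937 monocytes differentiated to macrophage-type with PMA 100 ng/mL for 48–72 hr. Relative 50% effective concentration derived from concentration–response data.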

IL-8 release, PBMCs = assay: LPS-induced IL-8 release in PBMC cells; type: cell-based; settings: Homo sapiens, LPS stimulated, read-out: IC50 Values for Inhibition of Cytokine Release, PBMCs, IL-8
Method: (b) LPS-Induced TNFα/IL-8 Release in PBMC Cells
Peripheral blood mononuclear cells (PBMCs) from healthy subjects are separated from whole blood using a density gradient (Lymphoprep, Axis-Shield Healthcare). The PBMCs are seeded in 96 well plates and treated with compounds at the desired concentration for 2 hours before addition of 1 ng/ml LPS (Escherichia Coli 0111:B4 from Sigma Aldrich) for 24 hours under normal tissue culture conditions (37° C., 5% CO2). The supernatant is harvested for determination of […] concentrations by sandwich ELISA (Duo-set, R&D systems) and read on the fluorescence microplate reader (Varioskan® Flash, ThermoFisher Scientific).

[5] = tested on: ICAM-1 expression, BEAS2B cells; assay: Poly I:C-induced ICAM-1 expression in BEAS2B cells; type: cell-based; settings: Homo sapiens, BEAS-2B; read-out: Poly IC induced ICAM1 in BEAS2B, IC50
Summary of the method: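 Cell-based ELISA for surface ICAM-1 in human BEAS2B cells 18 h after transfection with the RNA-virus mimic poly I:C (1 μg/mL, with Oligofectamine), compounds added 2 h beforehand. OD450–655 divided by Crystal Violet OD595 per well; percent inhibition relative to vehicle.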

d-U937 cells = assay: Cell viability: MTT assay; type: cell-based, human; settings: 1 μg/mL
Summary of the method: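 MTT reduction (1 h, DMSO solubilisation, A550) measured after compound treatment at 1 or 10 μg/mL of differentiated U937 cells for 4 h (5% FCS RPMI1640) or 24 h (10% FCS). Percentage viability loss computed relative to 0.5% DMSO vehicle, with increases tabulated as negative values.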

[6] = Table 4a2, different laboratory

cSrc, sequence (P12931 whole entry): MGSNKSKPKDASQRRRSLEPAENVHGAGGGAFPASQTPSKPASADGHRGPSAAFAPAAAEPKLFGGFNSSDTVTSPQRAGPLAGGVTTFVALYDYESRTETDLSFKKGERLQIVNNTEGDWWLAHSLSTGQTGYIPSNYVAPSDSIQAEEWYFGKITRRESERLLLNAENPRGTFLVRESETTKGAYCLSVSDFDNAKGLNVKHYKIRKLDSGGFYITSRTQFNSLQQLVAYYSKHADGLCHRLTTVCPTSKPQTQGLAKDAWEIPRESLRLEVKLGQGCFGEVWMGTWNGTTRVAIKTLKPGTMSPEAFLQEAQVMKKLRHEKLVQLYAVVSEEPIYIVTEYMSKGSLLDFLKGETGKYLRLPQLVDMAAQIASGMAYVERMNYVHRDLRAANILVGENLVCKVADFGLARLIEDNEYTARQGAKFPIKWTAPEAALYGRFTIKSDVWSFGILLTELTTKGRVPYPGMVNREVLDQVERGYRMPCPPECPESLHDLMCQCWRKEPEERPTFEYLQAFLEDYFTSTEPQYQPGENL

SMILES | IC50 (cSrc; Table 4a1) [nM] | IC50 (Syk; Table 4a1) [nM] | IC50 (GSK3α [1]) [nM] | IC50 (GSK3α [2]) [nM] | EC50 [3] [nM] | IC50 [4] [nM] | IC50 (IL-8 release, PBMCs) [nM] | IC50 [5] [nM] | Cell viability at time point in d-U937 cells, 4 h (d-U937 cells) | Cell viability at time point in d-U937 cells, 24 h (d-U937 cells) | IC50 (cSrc; [6]) [nM] | IC50 (Syk; [6]) [nM]
CCc1cc(NC(=O)Nc2ccc(Oc3ccnc(Nc4cc(OC)cc(C(=O)NCCN5CCOCC5)c4)n3)c3ccccc23)n(-c2ccc(C)cc2)n1 [Example 49, 3-((4-((4-(3-(3-ethyl-1-(p-tolyl)-1H-pyrazol-5-yl)ureido)naphthalen-1-yl)oxy)pyrimidin-2-yl)amino)-5-methoxy-N-(2-morpholinoethyl)benzamide] | 1 | 57 | > 13500 | ≥ 13500 | 9.2 | 17.2 | 19 | 33 | −ve (−ve and +ve indicate that the value is below and above respectively, the no significant effect threshold, defined as 30% inhibition at 1 μg/mL at the time point indicated) | −ve (−ve and +ve indicate that the value is below and above respectively, the no significant effect threshold, defined as 30% inhibition at 1 μg/mL at the time point indicated) | – | –
C#Cc1cc(Nc2nccc(Oc3ccc(NC(=O)Nc4cc(C(C)C)nn4-c4ccc(C)cc4)c(Cl)c3Cl)n2)cc(C(=O)NCCN2CCOCC2)c1 [Example 87, 3-((4-(2,3-Dichloro-4-(3-(3-isopropyl-1-(p-tolyl)-1H-pyrazol-5-yl)ureido)-phenoxy)pyrimidin-2-yl)amino)-5-ethynyl-N-(2-morpholinoethyl)benzamide] | – | – | – | 5840 | – | – | 9.4 | – | – | – | 22 | 27
COc1cc(C(=O)NCCN2CCOCC2)ccc1Nc1nccc(Oc2ccc(NC(=O)Nc3cc(C(C)C)nn3-c3ccc(C)cc3)c3ccccc23)n1 [Example 36, 4-((4-((4-(3-(3-isopropyl-1-(p-tolyl)-1H-pyrazol-5-yl)ureido)naphthalen-1-yl)oxy)pyrimidin-2-yl)amino)-3-methoxy-N-(2-morpholinoethyl)benzamide] | 8 | 169 | > 13200 | ≥ 13200 | 4.7 | 46 | 30.4 | 82.3 | −ve (−ve and +ve indicate that the value is below and above respectively, the no significant effect threshold, defined as 30% inhibition at 1 μg/mL at the time point indicated) | −ve (−ve and +ve indicate that the value is below and above respectively, the no significant effect threshold, defined as 30% inhibition at 1 μg/mL at the time point indicated) | – | –
C#Cc1cc(Nc2nccc(Oc3ccc(NC(=O)Nc4cc(C(C)C)nn4-c4ccc(C)cc4)c(Cl)c3Cl)n2)cc(C(=O)NCCN(C)C)c1 [Example 90, 3-((4-(2,3-Dichloro-4-(3-(3-isopropyl-1-(p-tolyl)-1H-pyrazol-5-yl)ureido)-phenoxy)pyrimidin-2-yl)amino)-N-(2-(dimethylamino)ethyl)-5-ethynylbenzamide] | – | – | – | 154 | – | – | 7.8 | – | – | – | – | –
C#Cc1cc(Nc2nccc(Oc3ccc(NC(=O)Nc4cc(C(C)(C)OC)nn4-c4ccc(C)cc4)c4ccccc34)n2)cc(C(=O)NCCN2CCOCC2)c1 [Example 79, 3-Ethynyl-5-((4-((4-(3-(3-(2-methoxypropan-2-yl)-1-(p-tolyl)-1H-pyrazol-5-yl)ureido)naphthalen-1-yl)oxy)pyrimidin-2-yl)amino)-N-(2-morpholinoethyl)benzamide] | – | – | – | 756 | – | – | 1.1 | – | – | – | – | –
